Literature values as cited in patent publication US9629846B1, “Nutritional supplements for women desiring to become pregnant, and pregnant and nursing women” (Argent Development Group, LLC, priority 2013, dated 2017).

How the values were obtained:
[1] = nutrient depletion
[2] = dietary iron, heme versus non-heme

Compound: CN(C)C(=N)N=C(N)N [metformin]
- effect on folate, magnesium and Vitamin B12 levels [1]: reduce folate, magnesium, and Vitamin B12 levels

Compound: Heme iron
- absorption [2]: 30%
